The record followed here is US11884675B2, “Heterocyclic compounds as triggering receptor expressed on myeloid cells 2 agonists and methods of use” (AMGEN INC., priority 2020, dated 2024).

The target of the test is hTREM2 (Homo sapiens, UniProt Q9NZC2). As to the kind of experiment: TREM2 agonist potency by Syk phosphorylation (AlphaLisa) in HEK293T-hTREM2 cells, used for Examples 306-429. On the set-up: expressed in transfected cells; host or cells: HEK293T (HEK293T-hTREM2 cells). As to conditions: HEK293 Cells. In kind it is cell-based. Summed up: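 HEK293T cells expressing human TREM2 and DAP12, plated 20-24 h before, were exposed to compounds for 45 min at room temperature, then lysed. Phospho-Syk read by AlphaLisa; % activation from a standard curve and EC50 from a four-parameter log(agonist) fit.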
A general note: Alpha assays give light when donor and acceptor beads are brought close together.

In general, EC50 refers to the concentration giving half of the maximal effect. Higher therefore signals a less potent agent.

hTREM2, sequence (Q9NZC2 19-230): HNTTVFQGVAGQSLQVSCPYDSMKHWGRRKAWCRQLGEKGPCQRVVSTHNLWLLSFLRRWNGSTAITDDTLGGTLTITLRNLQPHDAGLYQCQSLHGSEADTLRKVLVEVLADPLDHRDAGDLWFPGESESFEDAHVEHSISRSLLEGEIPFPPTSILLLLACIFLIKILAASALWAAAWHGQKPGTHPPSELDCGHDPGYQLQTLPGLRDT
hTREM2, sequence (O43914 22-113 partner): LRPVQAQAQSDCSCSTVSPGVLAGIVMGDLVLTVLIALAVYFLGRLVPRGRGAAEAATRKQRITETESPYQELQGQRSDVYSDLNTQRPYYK

As for `Cc1cc([C@H]2C[C@@H](c3cc4nc(C)c(C)cc4c(-c4ccc(Cl)cc4F)n3)CCO2)ccn1` (racemic) [Example 401, 5-(4-chloro-2-fluoro-phenyl)-2,3-dimethyl-7-[2-(2-methyl-4-pyridyl)tetrahydropyran-4-yl]-1,6-naphthyridine], the EC50 is at most 0.05 µM.
The figure for `Cc1cnc2c(C34CC(C)(C3)C4)nc([C@H]3C[C@@H](C)O[C@@H](c4cnn(C5CC5)c4)C3)cc2n1` [Example 421, 7-((2R,4S,6R)-2-(1-cyclopropyl-1H-pyrazol-4-yl)-6-methyltetrahydro-2H-pyran-4-yl)-2-methyl-5-(3-methylbicyclo[1.1.1]pentan-1-yl)pyrido[3,4-b]pyrazine] is 0.5 to 3 µM.
Consider `Cc1cnc2c(C34CC(C(F)(F)F)(C3)C4)nc(C3CCOC(c4cnn(C5CC5)c4)C3)nc2n1` (centres unmarked) [Example 360, 2-(2-(1-cyclopropyl-1H-pyrazol-4-yl)tetrahydro-2H-pyran-4-yl)-7-methyl-4-(3-(trifluoromethyl)bicyclo[1.1.1]pentan-1-yl)pteridine], for which the EC50 was at most 0.05 µM.
The same measure for `Cc1cc([C@H]2C[C@@H](c3cc4nc(C)cnc4c(-c4ccc(C(F)(F)F)nc4)n3)CCO2)ccn1` (racemic) [Example 308, 2-methyl-7-(2-(2-methylpyridin-4-yl)tetrahydro-2H-pyran-4-yl)-5-(6-(trifluoromethyl)pyridin-3-yl)pyrido[3,4-b]pyrazine]: 0.05 to 0.5 µM; for `Cc1cc([C@H]2C[C@@H](c3cc4nc(C)c(C)nc4c(-c4ccc(F)cc4F)n3)CCO2)ccn1` [Example 317, 5-(2,4-difluorophenyl)-2,3-dimethyl-7-[(2R,4S)-2-(2-methyl-4-pyridyl)tetrahydropyran-4-yl]pyrido[3,4-b]pyrazine]: at most 0.05 µM; for `Cc1ccc2c(C34CC(C(C)C)(C3)C4)nc([C@H]3CCO[C@@H](c4cnn(C5CC5)c4)C3)nc2n1` [Example 428, 2-((2R,4S)-2-(1-cyclopropyl-1H-pyrazol-4-yl)tetrahydro-2H-pyran-4-yl)-4-(3-isopropylbicyclo[1.1.1]pentan-1-yl)-7-methylpyrido[2,3-d]pyrimidine]: 0.05 to 0.5 µM.
The same measure for `Cc1cc([C@@H]2C[C@H](c3nc(-c4ccc(Cl)c(F)c4F)c4nc(C)c(C)nc4n3)CCO2)ccn1` [Example 396, 4-(4-chloro-2,3-difluorophenyl)-6,7-dimethyl-2-((2S,4R)-2-(2-methylpyridin-4-yl)tetrahydro-2H-pyran-4-yl)pteridine]: 0.05 to 0.5 µM.
The figure for `Cc1nc2nc(N3C[C@H](C)O[C@@H](c4cnn(C5CC5)c4)C3)nc(C34CC(C(F)(F)F)(C3)C4)c2nc1C` [Example 408, (2S,6S)-2-(1-cyclopropyl-1H-pyrazol-4-yl)-4-(6,7-dimethyl-4-(3-(trifluoromethyl)bicyclo[1.1.1]pentan-1-yl)pteridin-2-yl)-6-methylmorpholine] is at most 0.05 µM; for `Cc1nc2cc(N3C[C@H](C)O[C@@H](c4cnn(C5CC5)c4)C3)nc(-c3ccc(F)cc3F)c2nc1C` (racemic) [Example 357, 2-(1-cyclopropyl-1H-pyrazol-4-yl)-4-(5-(2,4-difluorophenyl)-2,3-dimethylpyrido[3,4-b]pyrazin-7-yl)-6-methylmorpholine] it is at most 0.05 µM.
Turning to `Cc1nc2cc(N3CCOC(c4cnn(C5CC5)c4)C3)nc(-c3ccc(F)cc3F)c2nc1C` (centres unmarked) [Example 342, 2-(1-cyclopropyl-1H-pyrazol-4-yl)-4-(5-(2,4-difluorophenyl)-2,3-dimethylpyrido[3,4-b]pyrazin-7-yl)morpholine], the EC50 was at most 0.05 µM.
The same measure for `COc1cc([C@@H]2CN(c3nc(-c4ccc(Cl)cc4F)c4nc(C)c(C)nc4n3)CCO2)ccn1` [Example 336, (R)-4-(4-(4-chloro-2-fluorophenyl)-6,7-dimethylpteridin-2-yl)-2-(2-methoxypyridin-4-yl)morpholine]: 0.05 to 0.5 µM; for `Cc1ccc2c(-c3ccc(Cl)cc3F)nc([C@H]3C[C@@H](C)O[C@@H](c4cnn(C5CC5)c4)C3)nc2n1` [Example 414, 4-(4-chloro-2-fluorophenyl)-2-((2R,4S,6R)-2-(1-cyclopropyl-1H-pyrazol-4-yl)-6-methyltetrahydro-2H-pyran-4-yl)-7-methylpyrido[2,3-d]pyrimidine]: at most 0.05 µM; for `Cc1cc([C@H]2CN(c3cc4nc(C)cnc4c(-c4ccc(F)cc4F)n3)CCO2)ccn1` [Example 334, (S)-4-(5-(2,4-difluorophenyl)-2-methylpyrido[3,4-b]pyrazin-7-yl)-2-(2-methylpyridin-4-yl)morpholine]: at most 0.05 µM.
The same measure for `COc1cc([C@H]2CN(c3nc(-c4ccc(Cl)cc4F)c4nc(C)c(C)nc4n3)CCO2)ccn1` [Example 335, (S)-4-(4-(4-chloro-2-fluorophenyl)-6,7-dimethylpteridin-2-yl)-2-(2-methoxypyridin-4-yl)morpholine]: at most 0.05 µM; for `Cc1cnc2c(-c3ccc(F)cc3F)nc([C@@H]3CCO[C@@H](c4cnn(C5CC5)c4)C3)nc2n1` [Example 338, 2-((2R,4R)-2-(1-cyclopropyl-1H-pyrazol-4-yl)tetrahydro-2H-pyran-4-yl)-4-(2,4-difluorophenyl)-7-methylpteridine]: 0.5 to 3 µM.
Molecule `Cc1cnc2c(-c3ccc(F)cc3F)nc([C@H]3C[C@@H](C)O[C@@H](c4cnn(C5CC5)c4)C3)cc2n1` [Example 417, 7-((2R,4S,6R)-2-(1-cyclopropyl-1H-pyrazol-4-yl)-6-methyltetrahydro-2H-pyran-4-yl)-5-(2,4-difluorophenyl)-2-methylpyrido[3,4-b]pyrazine] had an EC50 of 0.05 to 0.5 µM.
The figure for `Cc1cc([C@H]2C[C@@H](c3nc(-c4ccc(Cl)cc4F)c4ccc(C)nc4n3)CCO2)ccn1` (racemic) [Example 325, 4-(4-chloro-2-fluorophenyl)-7-methyl-2-(2-(2-methylpyridin-4-yl)tetrahydro-2H-pyran-4-yl)pyrido[2,3-d]pyrimidine] is at most 0.05 µM; for `Cc1cc(C2CN(c3nc(-c4ccc(Cl)c(F)c4F)c4nc(C)c(C)nc4n3)CCO2)ccn1` (centres unmarked) [Example 337, 4-(4-(4-chloro-2,3-difluorophenyl)-6,7-dimethylpteridin-2-yl)-2-(2-methylpyridin-4-yl)morpholine] it is at most 0.05 µM.
The figure for `Cc1cc(C2CN(c3nc(-c4ccc(Cl)cc4C(F)(F)F)c4nc(C)c(C)nc4n3)CCO2)ccn1` (centres unmarked) [Example 343, 4-(4-(4-chloro-2-(trifluoromethyl)phenyl)-6,7-dimethylpteridin-2-yl)-2-(2-methylpyridin-4-yl)morpholine] is 0.05 to 0.5 µM; for `Cc1cnc2c(-c3ccc(F)cc3F)nc([C@H]3CCO[C@@H](c4cnn(C5CC5)c4)C3)cc2n1` (racemic) [Example 388, 5-(2,4-difluorophenyl)-2-methyl-7-[2-(1-cyclopropylpyrazol-4-yl)tetrahydropyran-4-yl]pyrido[3,4-b]pyrazine] it is 0.05 to 0.5 µM; for `Cc1nc2cc(N3CCOC(c4cnn(C5CC5)c4)C3)nc(-c3ccc(Cl)cc3F)c2nc1C` (centres unmarked) [Example 348, 4-(5-(4-chloro-2-fluorophenyl)-2,3-dimethylpyrido[3,4-b]pyrazin-7-yl)-2-(1-cyclopropyl-1H-pyrazol-4-yl)morpholine] it is at most 0.05 µM.
The figure for `Cc1cnc2c(-c3ccc(F)cc3F)nc(N3C[C@@H](C)O[C@@H](c4cnn(C5CC5)c4)C3)nc2n1` (racemic) [Example 371, 2-(1-cyclopropyl-1H-pyrazol-4-yl)-4-(4-(2,4-difluorophenyl)-7-methylpteridin-2-yl)-6-methylmorpholine] is at most 0.05 µM.
Molecule `Cc1nc2cc(N3C[C@H](C)O[C@@H](c4cnn(C5CC5)c4)C3)nc(C34CC(C(F)(F)F)(C3)C4)c2nc1C` (racemic) [Example 378, 2-(1-cyclopropylpyrazol-4-yl)-4-[2,3-dimethyl-5-[3-(trifluoromethyl)-1-bicyclo[1.1.1]pentanyl]pyrido[3,4-b]pyrazin-7-yl]-6-methyl-morpholine] came in with a concentration giving a half-maximal response (EC50) of 0.05 to 0.5 µM.
The figure for `Cc1cc(C2CN(c3cc4nc(C)c(C)nc4c(-c4ccc(C(F)(F)F)nc4)n3)CCO2)ccn1` (centres unmarked) [Example 312, 4-(2,3-dimethyl-5-(6-(trifluoromethyl)pyridin-3-yl)pyrido[3,4-b]pyrazin-7-yl)-2-(2-methylpyridin-4-yl)morpholine] is at most 0.05 µM.
The same measure for `Cc1cc([C@H]2C[C@@H](c3nc(-c4ccc(F)cc4F)c4ccc(C)nc4n3)CCO2)ccn1` (racemic) [Example 323, 4-(2,4-difluorophenyl)-7-methyl-2-(2-(2-methylpyridin-4-yl)tetrahydro-2H-pyran-4-yl)pyrido[2,3-d]pyrimidine]: at most 0.05 µM; for `Cc1nc2nc([C@H]3CCO[C@@H](c4cnn(C5CC5)c4)C3)nc(C34CC(C(F)(F)F)(C3)C4)c2nc1C` (stereo in doubt) [Example 366, 2-(2-(1-cyclopropyl-1H-pyrazol-4-yl)tetrahydro-2H-pyran-4-yl)-6,7-dimethyl-4-(3-(trifluoromethyl)bicyclo[1.1.1]pentan-1-yl)pteridine]: at most 0.05 µM.
The figure for `Cc1cnc2c(-c3ccc(F)cc3F)nc(N3C[C@H](C)O[C@@H](c4cnn(C5CC5)c4)C3)cc2n1` (racemic) [Example 361, 2-(1-cyclopropyl-1H-pyrazol-4-yl)-4-(5-(2,4-difluorophenyl)-2-methylpyrido[3,4-b]pyrazin-7-yl)-6-methylmorpholine] is 0.05 to 0.5 µM; for `Cc1nc2nc(N3C[C@@H](c4cnn(C5CC5)c4)O[C@@H](C)C3)nc(-c3ccc(Cl)cc3F)c2nc1C` [Example 424, (2R,6S)-4-(4-(4-chloro-2-fluorophenyl)-6,7-dimethylpteridin-2-yl)-2-(1-cyclopropyl-1H-pyrazol-4-yl)-6-methylmorpholine] it is at most 0.05 µM.
`Cc1cc([C@H]2CN(c3nc(-c4cc(F)c(Cl)cc4F)c4nc(C)c(C)nc4n3)CCO2)ccn1` [Example 387, (2S)-4-[4-(4-chloro-2,5-difluoro-phenyl)-6,7-dimethyl-pteridin-2-yl]-2-(2-methyl-4-pyridyl)morpholine] had an EC50 of at most 0.05 µM.
